{"source": "ChEMBL document CHEMBL5029198", "about": "“Water-Soluble Nystatin and Derivative” (ACS Med Chem Lett, 2022)", "key": {"Candida albicans": {"tested_on": "Candida albicans", "assay": "Antifungal activity against Candida albicans ATCC 10231 assessed as reduction in fungal growth incubated overnight by broth dilution method", "assay_type": "functional"}, "Aspergillus niger": {"tested_on": "Aspergillus niger", "assay": "Antifungal activity against Aspergillus niger ATCC 20057 assessed as reduction in fungal growth incubated overnight by broth dilution method", "assay_type": "functional"}, "[1]": {"assay": "Cytotoxicity against human HEp-2 cells assessed as reduction in cell viability incubated for 40 to 60 mins by resazurin dye based assay", "conditions": "time 40-60 min"}, "[2]": {"assay": "Protein binding in human plasma assessed as free fraction at 0.5 mg/ml measured after 48 hrs by RP-HPLC analysis relative to control", "assay_type": "ADME, cell-free"}, "[3]": {"assay": "Protein binding in human plasma assessed as unbound fraction at 0.5 mg/ml measured after 24 hrs by RP-HPLC analysis (Rvb= 0.211 mg/ml)", "assay_type": "ADME, cell-free"}, "[4]": {"assay": "Aqueous solubility of compound at up to 100 mg/ml", "assay_type": "physicochemical", "conditions": "buffer"}, "[5]": {"assay": "Stability of compound in human plasma assessed as retention time at 0.5 mg/ml measured after 48 hrs by HPLC analysis", "assay_type": "ADME, cell-free"}, "[6]": {"assay": "Protein binding in human plasma assessed as unbound fraction at 0.05 mg/ml measured after 24 hrs by RP-HPLC analysis (Rvb= 0.014 mg/ml)", "assay_type": "ADME, cell-free"}, "[7]": {"assay": "Protein binding in human plasma assessed as unbound fraction at 0.5 mg/ml measured after 48 hrs by RP-HPLC analysis (Rvb= 0.211 mg/ml)", "assay_type": "ADME, cell-free"}, "[8]": {"assay": "Protein binding in human plasma at 0.5 mg/ml measured after 24 hrs by RP-HPLC analysis relative to control", "assay_type": "ADME, cell-free", "conditions": "read-out: PPB (converted)"}, "[9]": {"assay": "Protein binding in human plasma at 0.25 mg/ml measured after 24 hrs by RP-HPLC analysis relative to control", "assay_type": "ADME, cell-free", "conditions": "read-out: PPB (converted)"}, "[10]": {"assay": "Protein binding in human plasma assessed as unbound fraction at 0.1 mg/ml measured after 48 hrs by RP-HPLC analysis (Rvb= 0.069 mg/ml)", "assay_type": "ADME, cell-free"}, "[11]": {"assay": "Protein binding in human plasma assessed as unbound fraction at 0.25 mg/ml measured after 24 hrs by RP-HPLC analysis (Rvb= 0.147 mg/ml)", "assay_type": "ADME, cell-free"}, "[12]": {"assay": "Protein binding in human plasma assessed as free fraction at 0.1 mg/ml measured after 48 hrs by RP-HPLC analysis relative to control", "assay_type": "ADME, cell-free"}, "[13]": {"assay": "Protein binding in human plasma assessed as unbound fraction at 0.1 mg/ml measured after 24 hrs by RP-HPLC analysis (Rvb= 0.069 mg/ml)", "assay_type": "ADME, cell-free"}, "[14]": {"assay": "Hemolytic activity in human RBC at 0.5 mg/ml measured after 1 hr relative to control", "assay_type": "ADME, tissue-based, Erythrocyte", "conditions": "red blood cells, read-out: Activity"}, "[15]": {"assay": "Stability of compound in human plasma assessed as retention time at 0.5 mg/ml measured after 6 hrs by HPLC analysis", "assay_type": "ADME, cell-free"}, "[16]": {"assay": "Hemolytic activity in human RBC at 0.25 mg/ml measured after 1 hr", "assay_type": "ADME, tissue-based", "conditions": "erythrocyte"}, "[17]": {"assay": "Protein binding in human plasma assessed as free fraction at 0.25 mg/ml measured after 48 hrs by RP-HPLC analysis relative to control", "assay_type": "ADME, cell-free"}, "[18]": {"assay": "Protein binding in human plasma assessed as unbound fraction at 0.25 mg/ml measured after 48 hrs by RP-HPLC analysis (Rvb= 0.147 mg/ml)", "assay_type": "ADME, cell-free"}}, "note": "Where a SMILES comes first, the peptide text is derived from it. Bridges are numbered along the chain shown (N, C = ends). [ ]: non-standard residue; d: D form. The star is where a group is joined. X1 = CC[C@H](C)CCCCC(=O)*; Dab = NCC[C@H](N)C(=O)O", "data": [{"compound": "C[C@@H]1[C@H](O)[C@@H](C)/C=C/C=C/C=C/C=C/C=C/C=C/C=C/[C@H](O[C@@H]2O[C@H](C)[C@@H](O)[C@H](N)[C@@H]2O)C[C@@H]2O[C@](O)(C[C@@H](O)C[C@@H](O)[C@H](O)CC[C@@H](O)C[C@@H](O)CC(=O)O[C@H]1C)C[C@H](O)[C@H]2C(=O)O", "note": "[AMPHOTERICIN B]", "values": [{"measurement": "MIC", "setting": "Candida albicans", "value": 5, "unit": "µg/mL"}, {"measurement": "MIC", "setting": "Aspergillus niger", "value": 31.5, "unit": "µg/mL"}, {"measurement": "CC50", "setting": "[1]", "value": 87, "unit": "µg/mL"}]}, {"compound": "CC(=O)O.C[C@@H]1[C@H](O)[C@@H](C)/C=C/C=C/CC/C=C/C=C/C=C/C=C/[C@H](O[C@@H]2O[C@H](C)[C@@H](O)[C@H](N)[C@@H]2O)C[C@@H]2O[C@](O)(C[C@@H](O)[C@H](O)CC[C@@H](O)C[C@@H](O)C[C@@H](O)CC(=O)O[C@H]1C)C[C@H](O)[C@H]2C(=O)NCCO", "values": [{"measurement": "fraction unbound at 48 h, 0.5 mg/ml", "setting": "[2]", "value": 0.274}, {"measurement": "Cp(f)", "setting": "[3]", "value": 168, "unit": "µg/mL"}, {"measurement": "solubility", "setting": "[4]", "value": "Soluble"}, {"measurement": "Retention_time", "setting": "[5]", "value": 6.5, "unit": "min"}, {"measurement": "Cp(f)", "setting": "[6]", "value": 13, "unit": "µg/mL"}, {"measurement": "Cp(f)", "setting": "[7]", "value": 137, "unit": "µg/mL"}, {"measurement": "MIC", "setting": "Candida albicans", "value": 5, "unit": "µg/mL"}, {"measurement": "fraction unbound at 24 h, 0.5 mg/ml", "setting": "[8]", "value": 0.34}, {"measurement": "fraction unbound at 24 h, 0.25 mg/ml", "setting": "[9]", "value": 0.48}, {"measurement": "Cp(f)", "setting": "[10]", "value": 30, "unit": "µg/mL"}, {"measurement": "Cp(f)", "setting": "[11]", "value": 120, "unit": "µg/mL"}, {"measurement": "fraction unbound at 48 h, 0.1 mg/ml", "setting": "[12]", "value": 0.3}, {"measurement": "MIC", "setting": "Aspergillus niger", "value": 23.6, "unit": "µg/mL"}, {"measurement": "CC50", "setting": "[1]", "value": 149, "unit": "µg/mL"}, {"measurement": "Cp(f)", "setting": "[13]", "value": 42, "unit": "µg/mL"}, {"measurement": "hemolysis at 1 h, 0.5 mg/ml", "setting": "[14]", "value": 62, "unit": "%"}, {"measurement": "Retention_time", "setting": "[15]", "value": 9.4, "unit": "min"}, {"measurement": "Activity", "setting": "[16]", "value": "Non-Toxic"}, {"measurement": "fraction unbound at 48 h, 0.25 mg/ml", "setting": "[17]", "value": 0.4}, {"measurement": "Cp(f)", "setting": "[18]", "value": 100, "unit": "µg/mL"}]}, {"compound": "NYSTATIN [listing 1 of 2 here]", "values": [{"measurement": "MIC", "setting": "Candida albicans", "value": 10, "unit": "µg/mL"}, {"measurement": "MIC", "setting": "Aspergillus niger", "value": 22.5, "unit": "µg/mL"}]}, {"compound": "CC[C@H](C)CCCCC(=O)N[C@@H](CCN)C(=O)N[C@H](C(=O)N[C@@H](CCN)C(=O)N[C@H]1CCNC(=O)[C@H]([C@@H](C)O)NC(=O)[C@H](CCN)NC(=O)[C@H](CCN)NC(=O)[C@H](CC(C)C)NC(=O)[C@@H](Cc2ccccc2)NC(=O)[C@H](CCN)NC1=O)[C@@H](C)O", "note": "(X1-[Dab]T[Dab][Dab][Dab][dF]L[Dab][Dab]T; lactam 4-C)", "values": [{"measurement": "MIC", "setting": "Candida albicans", "value": "> 35", "unit": "µg/mL"}, {"measurement": "MIC", "setting": "Aspergillus niger", "value": "> 35", "unit": "µg/mL"}]}, {"compound": "NYSTATIN [listing 2 of 2 here]", "values": [{"measurement": "Activity", "setting": "[16]", "value": "Toxic"}]}, {"compound": "Clc1ccc(COC(Cn2ccnc2)c2ccc(Cl)cc2Cl)cc1", "note": "(configuration not stated) [ECONAZOLE]", "values": [{"measurement": "MIC", "setting": "Candida albicans", "value": "> 35", "unit": "µg/mL"}, {"measurement": "MIC", "setting": "Aspergillus niger", "value": "> 35", "unit": "µg/mL"}]}, {"compound": "CC(=O)O.COC(=O)[C@H]1[C@@H]2C[C@@H](O[C@@H]3O[C@H](C)[C@@H](O)[C@H](N)[C@@H]3O)/C=C/C=C/C=C/C=C/CC/C=C/C=C/[C@H](C)[C@@H](O)[C@@H](C)[C@H](C)OC(=O)C[C@H](O)C[C@H](O)C[C@H](O)CC[C@@H](O)[C@H](O)C[C@](O)(C[C@@H]1O)O2", "values": [{"measurement": "MIC", "setting": "Candida albicans", "value": 30, "unit": "µg/mL"}, {"measurement": "MIC", "setting": "Aspergillus niger", "value": "> 35", "unit": "µg/mL"}]}]}
